ChEMBL document CHEMBL1201862, “PubChem BioAssay data set” (2004)
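Five compound concentrations were applied to cells in 96-well plates for 48 hours; endpoints were derived by simple linear interpolation of the resulting dose-response curve. GI50 is the concentration that inhibits growth by half.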 The source made the active and inactive calls. No stated cut-off is given here; in the data, active = GI50 up to about 1.1 µM and inactive = higher.

Key:
Assay in all cases: DTP human tumour cell line panel, 48 h
IGROV-1 = system: IGROV-1
HCC 2998 = system: HCC 2998
SK-MEL-2 = system: SK-MEL-2
MDA-MB-435 = system: MDA-MB-435
HOP-62 = system: HOP-62
DU-145 = system: DU-145
CAKI-1 = system: CAKI-1
SF-295 = system: SF-295
RPMI-8226 = system: RPMI-8226
UACC-257 = system: UACC-257
OVCAR-4 = system: OVCAR-4
MOLT-4 = system: MOLT-4
CCRF-CEM = system: CCRF-CEM
T47D = system: T47D
SK-OV-3 = system: SK-OV-3
NCI-H23 = system: NCI-H23
U-251 = system: U-251
NCI-H522 = system: NCI-H522
Malme-3M = system: Malme-3M
RXF 393 = system: RXF 393

Measured: GI50

COc1ccc(/C(=N/N=c2[nH]c3ccccc3[nH]2)C(=O)O)cc1
inactive: IGROV-1 > 100 µM | HCC 2998 > 100 µM | SK-MEL-2 > 100 µM | MDA-MB-435 > 100 µM | HOP-62 > 100 µM | DU-145 > 100 µM | CAKI-1 > 100 µM | SF-295 > 100 µM | RPMI-8226 > 100 µM | UACC-257 > 100 µM | OVCAR-4 > 100 µM | MOLT-4 > 100 µM | CCRF-CEM > 100 µM | T47D > 100 µM | SK-OV-3 > 100 µM | NCI-H23 > 100 µM | U-251 > 100 µM | NCI-H522 > 100 µM | Malme-3M > 100 µM

COc1cc2c(c(OC)c1OC)-c1ccc(=O)c(O)cc1[C@@H](NC(C)=O)CC2 [COLCHICEINE]
inactive: IGROV-1 26.3 µM | HCC 2998 15.3 µM | SK-MEL-2 25.5 µM | MDA-MB-435 18.4 µM | HOP-62 24.9 µM | DU-145 27.6 µM | CAKI-1 12.6 µM | SF-295 22.2 µM | RPMI-8226 11.1 µM | UACC-257 21.2 µM | OVCAR-4 12.6 µM | MOLT-4 5.42 µM | CCRF-CEM 11.9 µM | T47D 5.51 µM | SK-OV-3 40.5 µM | NCI-H23 10.6 µM | U-251 15.7 µM | NCI-H522 12.2 µM

CC(=O)N1CCOC12N=NC(C)(C)O2 (centres undefined)
inactive: IGROV-1 > 100 µM | HCC 2998 > 100 µM | SK-MEL-2 > 100 µM | MDA-MB-435 > 100 µM | HOP-62 > 100 µM | DU-145 > 100 µM | CAKI-1 > 100 µM | SF-295 > 100 µM | RPMI-8226 > 100 µM | UACC-257 > 100 µM | OVCAR-4 > 100 µM | MOLT-4 > 100 µM | T47D > 100 µM | SK-OV-3 > 100 µM | NCI-H23 > 100 µM | U-251 > 100 µM | NCI-H522 > 100 µM | Malme-3M > 100 µM

NC(=O)C(c1ccccc1)N1OC2C(=O)N(Cc3ccccc3)C(=O)C2C1c1cccc(Oc2ccc(Cl)cc2)c1 (centres undefined)
inactive: IGROV-1 36.5 µM | SK-MEL-2 22.2 µM | MDA-MB-435 27 µM | HOP-62 42.1 µM | DU-145 33.1 µM | CAKI-1 14.9 µM | SF-295 38.5 µM | UACC-257 36.6 µM | OVCAR-4 27.8 µM | MOLT-4 32.8 µM | RXF 393 17.5 µM | CCRF-CEM 36.1 µM | T47D 32.1 µM | SK-OV-3 60.7 µM | NCI-H23 36.2 µM | U-251 28.2 µM | NCI-H522 28.7 µM | Malme-3M 42.9 µM

Cc1ccc(C)n2c1nc1cc3ccccc3cc12
inactive: IGROV-1 23.1 µM | MDA-MB-435 44.8 µM | HOP-62 21 µM | DU-145 51.9 µM | SF-295 42.3 µM | RPMI-8226 42.5 µM | UACC-257 49.2 µM | MOLT-4 23.3 µM | RXF 393 12.3 µM | CCRF-CEM 33.4 µM | T47D 11.1 µM | SK-OV-3 32.4 µM | NCI-H23 25.2 µM | U-251 30.4 µM | Malme-3M 50.1 µM

Cc1cccc2c(=O)c3cccc([C@@H](C)C(=O)O)c3oc12
inactive: IGROV-1 > 100 µM | HCC 2998 > 100 µM | SK-MEL-2 80.7 µM | MDA-MB-435 > 100 µM | HOP-62 > 100 µM | DU-145 > 100 µM | CAKI-1 > 100 µM | SF-295 > 100 µM | RPMI-8226 > 100 µM | UACC-257 > 100 µM | OVCAR-4 > 100 µM | MOLT-4 > 100 µM | CCRF-CEM > 100 µM | T47D > 100 µM | SK-OV-3 > 100 µM | NCI-H23 > 100 µM | U-251 > 100 µM | NCI-H522 > 100 µM

N#CCCC1(CCC#N)CCCCCCCCC(CCC#N)(CCC#N)C(=O)C1=O
inactive: HCC 2998 > 100 µM | SK-MEL-2 > 100 µM | MDA-MB-435 > 100 µM | HOP-62 > 100 µM | DU-145 > 100 µM | CAKI-1 > 100 µM | SF-295 > 100 µM | UACC-257 55.6 µM | OVCAR-4 > 100 µM | T47D 36.6 µM | SK-OV-3 > 100 µM | NCI-H23 > 100 µM | U-251 > 100 µM | NCI-H522 5.81 µM | Malme-3M > 100 µM

COC(=O)C1(C)C=CC(=O)C2(C)C1C(O)C1OC3CC(c4ccoc4)C(C)=C3C1(C)C2CC(=O)O (centres undefined)
inactive: IGROV-1 > 100 µM | HCC 2998 > 100 µM | SK-MEL-2 > 100 µM | MDA-MB-435 > 100 µM | DU-145 > 100 µM | CAKI-1 > 100 µM | SF-295 > 100 µM | RPMI-8226 > 100 µM | UACC-257 > 100 µM | OVCAR-4 > 100 µM | MOLT-4 > 100 µM | CCRF-CEM > 100 µM | T47D > 100 µM | SK-OV-3 > 100 µM | NCI-H23 > 100 µM | U-251 > 100 µM | NCI-H522 > 100 µM | Malme-3M > 100 µM
